The target in assay [1] is Serine/threonine-protein kinase MARK1 (Homo sapiens) (UniProt Q9P0L2). As to the kind of experiment: Inhibition of MARK1 (unknown origin) assessed as remaining activity at 1 uM by Kinome scan method relative to control.
Assay [2] deals with Phosphorylase b kinase gamma catalytic chain, skeletal muscle/heart isoform (Homo sapiens) (UniProt Q16816). As to the kind of experiment: Inhibition of PHKG1 (unknown origin) assessed as remaining activity at 1 uM by Kinome scan method relative to control.
Chain of Phosphorylase b kinase gamma catalytic chain, skeletal muscle/heart isoform (Homo sapiens) (Q16816 whole entry, looked up, canonical isoform): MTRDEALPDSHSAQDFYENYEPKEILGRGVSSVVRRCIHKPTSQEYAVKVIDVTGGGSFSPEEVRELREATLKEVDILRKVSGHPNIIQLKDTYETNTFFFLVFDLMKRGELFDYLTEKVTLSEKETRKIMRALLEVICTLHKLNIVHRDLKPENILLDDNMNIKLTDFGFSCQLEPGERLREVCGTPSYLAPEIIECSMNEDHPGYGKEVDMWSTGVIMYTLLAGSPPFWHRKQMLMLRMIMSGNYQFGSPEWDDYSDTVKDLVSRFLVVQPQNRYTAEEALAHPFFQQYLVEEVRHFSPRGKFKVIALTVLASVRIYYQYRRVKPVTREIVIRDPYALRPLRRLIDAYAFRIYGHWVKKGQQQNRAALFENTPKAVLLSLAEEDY
The test system of assay [3] is Tyrosine-protein kinase ABL1 (Homo sapiens), P00519 [F317L]. As to the kind of experiment: Inhibition of ABL1 F317L mutant (unknown origin) assessed as remaining activity at 1 uM by Kinome scan method relative to control.
Chain of Tyrosine-protein kinase ABL1 (Homo sapiens), P00519 [F317L] (P00519 whole entry F317L): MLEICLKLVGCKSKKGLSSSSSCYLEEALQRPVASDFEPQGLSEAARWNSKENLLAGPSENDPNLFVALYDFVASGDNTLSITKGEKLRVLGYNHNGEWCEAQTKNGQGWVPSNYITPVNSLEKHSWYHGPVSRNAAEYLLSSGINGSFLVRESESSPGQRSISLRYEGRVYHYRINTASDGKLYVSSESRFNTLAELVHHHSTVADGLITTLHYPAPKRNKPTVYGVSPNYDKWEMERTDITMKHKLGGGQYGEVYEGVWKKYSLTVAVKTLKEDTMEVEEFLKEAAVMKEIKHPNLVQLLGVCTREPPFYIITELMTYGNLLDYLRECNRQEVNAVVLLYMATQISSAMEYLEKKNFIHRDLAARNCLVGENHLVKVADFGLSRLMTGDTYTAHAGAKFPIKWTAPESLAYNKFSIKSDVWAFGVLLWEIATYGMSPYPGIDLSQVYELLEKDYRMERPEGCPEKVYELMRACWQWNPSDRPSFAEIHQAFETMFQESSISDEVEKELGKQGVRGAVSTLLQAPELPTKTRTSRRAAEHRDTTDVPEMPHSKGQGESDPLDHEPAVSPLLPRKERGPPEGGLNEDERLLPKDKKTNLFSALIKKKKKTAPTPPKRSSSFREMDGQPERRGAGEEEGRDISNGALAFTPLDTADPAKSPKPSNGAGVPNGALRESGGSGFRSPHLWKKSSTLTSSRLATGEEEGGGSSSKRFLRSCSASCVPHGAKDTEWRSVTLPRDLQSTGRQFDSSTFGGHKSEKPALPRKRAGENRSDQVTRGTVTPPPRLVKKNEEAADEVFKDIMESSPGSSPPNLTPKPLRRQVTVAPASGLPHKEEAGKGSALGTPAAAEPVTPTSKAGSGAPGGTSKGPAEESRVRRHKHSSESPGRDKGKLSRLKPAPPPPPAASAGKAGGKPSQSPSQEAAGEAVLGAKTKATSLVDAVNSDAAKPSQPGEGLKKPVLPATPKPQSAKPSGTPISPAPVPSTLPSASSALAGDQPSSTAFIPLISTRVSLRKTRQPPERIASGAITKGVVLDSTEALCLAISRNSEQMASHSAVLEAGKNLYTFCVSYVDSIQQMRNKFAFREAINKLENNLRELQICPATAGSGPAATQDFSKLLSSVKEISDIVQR
The target of assay [4] is Atypical kinase COQ8A, mitochondrial (Homo sapiens) (UniProt Q8NI60). As to the kind of experiment: Inhibition of ADCK3 (unknown origin) assessed as remaining activity at 1 uM by Kinome scan method relative to control.
Assay [5] deals with cAMP-dependent protein kinase catalytic subunit beta (Homo sapiens) (UniProt P22694). As to the kind of experiment: Inhibition of PKAC-beta (unknown origin) assessed as remaining activity at 1 uM by Kinome scan method relative to control.
Assay [6] deals with Serine/threonine-protein kinase 32C (Homo sapiens) (UniProt Q86UX6). As to the kind of experiment: Inhibition of YANK3 (unknown origin) assessed as remaining activity at 1 uM by Kinome scan method relative to control.
Chain of Serine/threonine-protein kinase 32C (Homo sapiens) (Q86UX6 whole entry): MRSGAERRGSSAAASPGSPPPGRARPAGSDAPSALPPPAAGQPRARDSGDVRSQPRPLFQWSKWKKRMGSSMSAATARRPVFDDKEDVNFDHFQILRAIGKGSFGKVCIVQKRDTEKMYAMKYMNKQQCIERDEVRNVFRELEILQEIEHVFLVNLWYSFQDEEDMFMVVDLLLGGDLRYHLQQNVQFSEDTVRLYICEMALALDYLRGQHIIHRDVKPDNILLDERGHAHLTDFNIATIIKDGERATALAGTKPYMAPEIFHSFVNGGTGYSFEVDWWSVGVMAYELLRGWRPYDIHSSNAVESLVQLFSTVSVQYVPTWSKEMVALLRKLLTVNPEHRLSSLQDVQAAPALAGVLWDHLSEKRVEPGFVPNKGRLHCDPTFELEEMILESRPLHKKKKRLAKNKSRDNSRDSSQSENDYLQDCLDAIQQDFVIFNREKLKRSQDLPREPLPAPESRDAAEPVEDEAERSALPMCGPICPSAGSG
The target in assay [7] is BMP-2-inducible protein kinase (Homo sapiens) (UniProt Q9NSY1). As to the kind of experiment: Inhibition of BIKE (unknown origin) assessed as remaining activity at 1 uM by Kinome scan method relative to control.
The target of assay [8] is T1, Serine/threonine-protein kinase 17A (Homo sapiens) (UniProt Q9UEE5).
T1 sequence (whole entry): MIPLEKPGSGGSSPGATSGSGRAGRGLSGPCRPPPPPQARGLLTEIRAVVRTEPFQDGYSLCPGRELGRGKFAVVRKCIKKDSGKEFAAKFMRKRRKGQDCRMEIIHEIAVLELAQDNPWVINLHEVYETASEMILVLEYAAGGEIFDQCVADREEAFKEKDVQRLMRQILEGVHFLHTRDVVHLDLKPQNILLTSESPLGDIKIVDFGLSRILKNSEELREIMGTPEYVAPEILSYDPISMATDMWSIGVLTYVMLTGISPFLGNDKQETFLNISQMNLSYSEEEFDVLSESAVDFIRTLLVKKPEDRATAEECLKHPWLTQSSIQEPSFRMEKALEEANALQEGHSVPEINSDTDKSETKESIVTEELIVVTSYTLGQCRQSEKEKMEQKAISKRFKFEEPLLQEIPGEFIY
As to the kind of experiment: Inhibition of DRAK1 (unknown origin) assessed as remaining activity at 1 uM by Kinome scan method relative to control.

Assay [9] has as its target MAP kinase-interacting serine/threonine-protein kinase 2 (Homo sapiens) (UniProt Q9HBH9). As to the kind of experiment: Inhibition of MKNK2 (unknown origin) assessed as remaining activity at 1 uM by Kinome scan method relative to control.
For assay [10], the target named is Dual specificity mitogen-activated protein kinase kinase 2 (Homo sapiens) (UniProt P36507). As to the kind of experiment: Inhibition of MEK2 (unknown origin) assessed as remaining activity at 1 uM by Kinome scan method relative to control.
In assay [11] the target is Myosin-IIIb (Homo sapiens) (UniProt Q8WXR4). As to the kind of experiment: Inhibition of MYO3B (unknown origin) assessed as remaining activity at 1 uM by Kinome scan method relative to control.
Chain of Myosin-IIIb (Homo sapiens) (Q8WXR4 whole entry): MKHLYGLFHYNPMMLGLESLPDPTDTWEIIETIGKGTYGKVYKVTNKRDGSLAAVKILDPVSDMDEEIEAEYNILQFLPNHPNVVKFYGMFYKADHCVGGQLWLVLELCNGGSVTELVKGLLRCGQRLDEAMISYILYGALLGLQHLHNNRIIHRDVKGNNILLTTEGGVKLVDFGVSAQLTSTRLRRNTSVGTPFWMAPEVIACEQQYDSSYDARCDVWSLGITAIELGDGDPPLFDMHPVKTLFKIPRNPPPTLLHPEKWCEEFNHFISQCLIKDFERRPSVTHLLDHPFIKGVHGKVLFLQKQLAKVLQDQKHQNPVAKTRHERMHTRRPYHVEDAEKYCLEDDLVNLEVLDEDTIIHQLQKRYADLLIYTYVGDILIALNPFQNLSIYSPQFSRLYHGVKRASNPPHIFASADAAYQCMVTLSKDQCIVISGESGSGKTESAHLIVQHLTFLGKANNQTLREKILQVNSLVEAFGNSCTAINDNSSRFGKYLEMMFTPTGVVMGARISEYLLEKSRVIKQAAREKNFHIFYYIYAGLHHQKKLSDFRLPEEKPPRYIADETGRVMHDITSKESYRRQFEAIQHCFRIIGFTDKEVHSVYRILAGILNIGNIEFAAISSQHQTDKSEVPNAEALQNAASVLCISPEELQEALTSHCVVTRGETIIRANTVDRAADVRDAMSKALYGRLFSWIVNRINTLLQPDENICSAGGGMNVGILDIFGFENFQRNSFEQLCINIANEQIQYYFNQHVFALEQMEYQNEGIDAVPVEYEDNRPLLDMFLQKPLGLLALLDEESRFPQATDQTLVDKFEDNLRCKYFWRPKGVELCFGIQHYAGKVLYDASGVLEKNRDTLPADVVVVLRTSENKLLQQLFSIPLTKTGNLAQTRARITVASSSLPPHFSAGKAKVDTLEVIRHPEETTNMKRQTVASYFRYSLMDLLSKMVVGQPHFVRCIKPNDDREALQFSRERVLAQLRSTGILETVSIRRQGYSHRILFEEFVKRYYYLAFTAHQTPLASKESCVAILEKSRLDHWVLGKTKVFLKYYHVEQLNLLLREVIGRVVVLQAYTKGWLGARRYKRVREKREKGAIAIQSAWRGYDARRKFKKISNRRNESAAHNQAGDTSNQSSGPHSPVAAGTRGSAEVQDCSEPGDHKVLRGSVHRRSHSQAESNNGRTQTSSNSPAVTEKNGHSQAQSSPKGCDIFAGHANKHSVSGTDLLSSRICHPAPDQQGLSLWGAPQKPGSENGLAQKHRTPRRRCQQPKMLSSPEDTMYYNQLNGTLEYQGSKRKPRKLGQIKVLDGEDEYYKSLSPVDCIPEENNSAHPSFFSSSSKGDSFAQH
Assay [12] has as its target T2, Serine/threonine-protein kinase BRSK1 (Homo sapiens) (UniProt Q8TDC3).
T2 sequence (whole entry): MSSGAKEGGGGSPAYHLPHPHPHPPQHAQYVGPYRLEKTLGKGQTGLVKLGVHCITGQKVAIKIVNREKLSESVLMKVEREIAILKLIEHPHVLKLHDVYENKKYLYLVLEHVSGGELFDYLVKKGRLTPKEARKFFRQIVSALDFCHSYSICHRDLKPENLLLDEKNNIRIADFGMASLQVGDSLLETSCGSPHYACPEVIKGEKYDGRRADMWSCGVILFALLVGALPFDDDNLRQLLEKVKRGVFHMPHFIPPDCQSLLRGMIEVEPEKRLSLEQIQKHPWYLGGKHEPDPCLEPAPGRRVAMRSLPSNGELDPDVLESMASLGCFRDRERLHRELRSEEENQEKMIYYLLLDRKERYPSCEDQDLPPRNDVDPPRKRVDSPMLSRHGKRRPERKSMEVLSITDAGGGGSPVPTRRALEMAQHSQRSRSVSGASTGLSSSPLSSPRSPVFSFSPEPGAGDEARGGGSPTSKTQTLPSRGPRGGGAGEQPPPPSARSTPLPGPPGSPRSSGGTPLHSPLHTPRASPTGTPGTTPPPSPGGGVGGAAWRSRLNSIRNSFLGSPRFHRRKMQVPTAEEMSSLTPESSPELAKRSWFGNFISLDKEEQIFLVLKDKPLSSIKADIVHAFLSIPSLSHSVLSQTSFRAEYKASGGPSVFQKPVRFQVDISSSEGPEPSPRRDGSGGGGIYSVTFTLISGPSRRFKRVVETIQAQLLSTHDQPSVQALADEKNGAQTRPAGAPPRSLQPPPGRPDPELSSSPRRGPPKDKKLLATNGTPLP
As to the kind of experiment: Inhibition of BRSK1 (unknown origin) assessed as remaining activity at 1 uM by Kinome scan method relative to control.

For assay [13], the target named is T3, Myotonin-protein kinase (Homo sapiens) (UniProt Q09013).
T3 sequence (whole entry): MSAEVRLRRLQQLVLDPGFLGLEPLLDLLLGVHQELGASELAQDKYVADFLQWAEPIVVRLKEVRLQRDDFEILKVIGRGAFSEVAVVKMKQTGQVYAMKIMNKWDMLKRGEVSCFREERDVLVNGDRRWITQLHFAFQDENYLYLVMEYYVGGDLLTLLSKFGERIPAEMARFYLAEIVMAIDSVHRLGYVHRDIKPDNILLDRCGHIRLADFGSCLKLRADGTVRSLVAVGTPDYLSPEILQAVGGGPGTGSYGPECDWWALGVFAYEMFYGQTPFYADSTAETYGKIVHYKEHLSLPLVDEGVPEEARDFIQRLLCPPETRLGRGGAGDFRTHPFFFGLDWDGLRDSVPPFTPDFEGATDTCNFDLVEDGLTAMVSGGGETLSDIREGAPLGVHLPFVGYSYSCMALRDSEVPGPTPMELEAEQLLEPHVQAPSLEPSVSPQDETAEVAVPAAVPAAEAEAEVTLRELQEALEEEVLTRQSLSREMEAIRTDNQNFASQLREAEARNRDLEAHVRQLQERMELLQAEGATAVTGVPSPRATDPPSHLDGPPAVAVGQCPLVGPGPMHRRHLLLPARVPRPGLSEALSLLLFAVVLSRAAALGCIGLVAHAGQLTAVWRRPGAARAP
As to the kind of experiment: Inhibition of DMPK (unknown origin) assessed as remaining activity at 1 uM by Kinome scan method relative to control.

For assay [14], the target named is Serine/threonine-protein kinase 26 (Homo sapiens) (UniProt Q9P289). As to the kind of experiment: Inhibition of MST4 (unknown origin) assessed as remaining activity at 1 uM by Kinome scan method relative to control.
Chain of Serine/threonine-protein kinase 26 (Homo sapiens) (Q9P289 2-416 limits assumed): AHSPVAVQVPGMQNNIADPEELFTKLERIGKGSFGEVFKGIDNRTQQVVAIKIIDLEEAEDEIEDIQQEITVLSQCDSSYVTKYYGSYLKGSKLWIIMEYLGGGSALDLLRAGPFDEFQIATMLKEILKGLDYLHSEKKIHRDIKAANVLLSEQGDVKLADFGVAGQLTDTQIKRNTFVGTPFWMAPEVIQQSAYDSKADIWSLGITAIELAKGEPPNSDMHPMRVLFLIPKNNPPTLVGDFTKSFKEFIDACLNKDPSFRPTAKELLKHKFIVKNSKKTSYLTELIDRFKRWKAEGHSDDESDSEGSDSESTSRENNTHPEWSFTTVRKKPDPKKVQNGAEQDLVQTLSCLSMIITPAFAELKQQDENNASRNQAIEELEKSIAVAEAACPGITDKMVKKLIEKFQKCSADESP

Chain of Serine/threonine-protein kinase MARK1 (Homo sapiens) (Q9P0L2 whole entry, looked up, canonical isoform): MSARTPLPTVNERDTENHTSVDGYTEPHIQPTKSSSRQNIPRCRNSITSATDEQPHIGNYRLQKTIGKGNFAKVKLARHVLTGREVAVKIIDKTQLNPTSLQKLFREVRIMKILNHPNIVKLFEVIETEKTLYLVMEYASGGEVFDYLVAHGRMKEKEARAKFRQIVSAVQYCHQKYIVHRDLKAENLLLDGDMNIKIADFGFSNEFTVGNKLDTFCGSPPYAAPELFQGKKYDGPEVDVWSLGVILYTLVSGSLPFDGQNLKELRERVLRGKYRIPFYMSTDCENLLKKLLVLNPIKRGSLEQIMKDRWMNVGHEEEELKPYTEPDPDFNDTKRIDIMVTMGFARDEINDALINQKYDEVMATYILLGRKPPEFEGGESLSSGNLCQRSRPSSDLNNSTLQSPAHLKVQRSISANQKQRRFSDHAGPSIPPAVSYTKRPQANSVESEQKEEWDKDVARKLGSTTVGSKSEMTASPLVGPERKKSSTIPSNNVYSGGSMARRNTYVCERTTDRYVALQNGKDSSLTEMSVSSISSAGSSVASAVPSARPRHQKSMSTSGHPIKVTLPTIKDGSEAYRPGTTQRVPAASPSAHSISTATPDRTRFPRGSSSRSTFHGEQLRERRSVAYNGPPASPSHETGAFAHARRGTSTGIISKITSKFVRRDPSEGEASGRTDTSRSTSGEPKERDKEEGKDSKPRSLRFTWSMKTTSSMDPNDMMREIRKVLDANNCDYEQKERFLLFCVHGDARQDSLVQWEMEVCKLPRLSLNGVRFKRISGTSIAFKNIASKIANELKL
Chain of MAP kinase-interacting serine/threonine-protein kinase 2 (Homo sapiens) (Q9HBH9 whole entry, looked up): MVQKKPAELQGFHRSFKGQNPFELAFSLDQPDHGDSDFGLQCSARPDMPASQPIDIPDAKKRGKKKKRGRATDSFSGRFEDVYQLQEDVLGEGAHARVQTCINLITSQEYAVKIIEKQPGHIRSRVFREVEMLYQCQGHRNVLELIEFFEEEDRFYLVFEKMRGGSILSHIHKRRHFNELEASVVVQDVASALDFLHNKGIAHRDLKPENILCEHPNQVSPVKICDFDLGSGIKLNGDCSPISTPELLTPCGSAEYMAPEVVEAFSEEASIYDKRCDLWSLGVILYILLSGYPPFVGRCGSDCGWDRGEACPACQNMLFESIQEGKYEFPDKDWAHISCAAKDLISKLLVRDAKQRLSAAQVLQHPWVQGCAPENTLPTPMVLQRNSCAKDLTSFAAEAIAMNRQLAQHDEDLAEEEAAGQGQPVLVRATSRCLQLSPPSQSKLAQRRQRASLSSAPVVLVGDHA

`Nc1ccccc1Nc1ccc2c(c1)CCc1ccccc1C2=O`: the Activity in [1] stood at 88%; in assay [2], 92%; in assay [3] it was 87%; in assay [4] it was 78%; in assay [5] it was 88%; in assay [6], 96%. In addition, the Activity in [7] amounted to 50%; in assay [8], 92%; in assay [9] it was 88%; in [10] it was 88%; in assay [11] it was 93%; in assay [12] it was 98%. The results for the Activity in assay [13] and in assay [14] were 93% and 96%, respectively.
In the case of `O=C1c2ccc(Nc3ccc(F)cc3F)cc2CCc2ccc(OC[C@H](O)CO)cc21` [Skepinone-L], the Activity in assay [1] was found to be 93%; in assay [2] it was 97%; in assay [3], 100%; in assay [4] it was 88%; in [5], 74%; in assay [6] it was 99%. Moreover, the Activity in assay [7] is 37%; in [8], 100%; in [9] it was 72%; in [10] it was 90%; in assay [11], 99%; in assay [12], 100%. In addition, the Activity came out at 76% in assay [13] and 100% in assay [14].

Values taken from ChEMBL document CHEMBL5696441 (Nat Chem Biol, 2011).
